Several values for one entry are separate records, joined by “and”; a condition that tells them apart may be missing. Identical values can stand only once.
What was measured:
[1] = Pharmacokinetic test on rats; type: in vivo, rat; details: male SD rats; for t1/2: data based on free base
Procedure: Male SD rats were fasted for 12 h before the test and then allowed to drink water freely. The compound (+)—I-3 p-toluenesulfonate or (+)—I-4 p-toluenesulfonate of the present application was dissolved with a 10% distilled water solution of 1,2-propanediol and then administered orally or intravenously to the male SD rats, with 3 rats in each group. At 15 min, 30 min, 1 hour, 2 hours, 3 hours, 4 hours, 6 hours, 8 hours and 24 hours after the oral administration or at 5 min, 15 min, 30 min, 1 hour, 2 hours, 3 hours, 4 hours, 6 hours, 8 hours and 24 hours after the intravenous administration, 0.2 mL of blood was taken from retroocular venous plexuses, placed in an EDTA-K2 test tube, centrifuged at 11,000 rpm for 5 min to separate plasma, and frozen in a refrigerator at −20° C. The concentration of a drug prototype was determined by HPLC-ESI-MS according to a verified method, and pharmacokinetic parameters were calculated by WinNonLin.

[2] = test system: male SD rats; assay: Acute toxicity test on rats; details: for Observation of clinical symptoms 0.5 h / Observation of clinical symptoms 1 h / Observation of clinical symptoms 2 h / Observation of clinical symptoms 4 h / Observation of clinical symptoms 6 h / Observation of clinical symptoms 24 h: per animal
Procedure: After adapting to the environment for one week, the SD rats were used in a preliminary acute toxicity test. The compounds were newly formulated on the day of the test. […] After being labeled and weighed, the animals were randomly grouped with 2-4 animals in each group. […] Clinical symptoms of each animal were observed and recorded at 0.5 hours, 1 hour, 2 hours, 4 hours, 6 hours and 24 hours after the administration, respectively. Clinical symptom codes were as follows: 0 no abnormality, 1 mild tremor, 2 unsteady gait, 3 prone position, 4 startle reflex, 5 difficult breathing, 6 righting reflex disappeared, 7 eyelid closure, 8 shortness of breath, and x animal death.

[3] = test system: postherpetic neuralgia; details: 150-600 mg per day; cited from earlier work
[4] = gavage vs intravenous injection
[5] = intravenous injection, 1.10 / 1.09 mg/kg
[6] = oral gavage 163.8 mg/kg (calculated by free base)
[7] = oral gavage 300 mg/kg (calculated by free base)

Compound: Cc1ccc(S(=O)(=O)O)cc1.NCC1(CC(=O)O)CC2C3C=CC(C3)C21 (single isomer, unassigned; (+)) [(+)-I-4 p-toluenesulfonate]
- F (%) calculated based on AUC0-t [1, 4]: 110.25% (calculated
- F (%) calculated based on AUC0-∞ [1, 4]: 110.36% (calculated
- t1/2 ([1]; gavage, 2.74 mg/kg ((+)-I-3) / 2.73 mg/kg ((+)-I-4)): 1.08 h
- AUC0-t ([1]; gavage, 2.74 / 2.73 mg/kg): 7290 ng·h/mL
- AUC0-∞ ([1]; gavage, 2.74 / 2.73 mg/kg): 7380 ng·h/mL
- Cmax ([1]; gavage, 2.74 / 2.73 mg/kg): 2350 ng/mL
- MRT0-∞ ([1]; gavage, 2.74 / 2.73 mg/kg): 2.38 h
- Tmax ([1]; gavage, 2.74 / 2.73 mg/kg): 1 h
- t1/2 ([1]; intravenous injection, 1.10 mg/kg ((+)-I-3) / 1.09 mg/kg ((+)-I-4)): 0.94 h
- AUC0-t [1, 5]: 2640 ng·h/mL
- AUC0-∞ [1, 5]: 2670 ng·h/mL
- MRT0-∞ [1, 5]: 1.63 h
- abnormal behaviors at 0-24 h after the administration [2, 6]: no obvious abnormal behaviors
- Observation of clinical symptoms 0.5 h [2, 6]: 0
- Observation of clinical symptoms 1 h [2, 6]: 0
- Observation of clinical symptoms 2 h [2, 6]: 0
- Observation of clinical symptoms 4 h [2, 6]: 0
- Observation of clinical symptoms 6 h [2, 6]: 0
- Observation of clinical symptoms 24 h [2, 6]: 0
- animal death [2, 7]: no animals are dead
- Observation of clinical symptoms 0.5 h [2, 7]: 0
- Observation of clinical symptoms 1 h [2, 7]: 3
- Observation of clinical symptoms 2 h [2, 7]: 0
- Observation of clinical symptoms 6 h [2, 7]: 0
- Observation of clinical symptoms 24 h [2, 7]: 0
- Observation of clinical symptoms 4 h ([2]; oral gavage 300 mg/kg (calculated by free base), 300 mg/kg): 3 and 0

Compound: CC(C)C[C@H](CN)CC(=O)O [Pregabalin]
- clinical effective rate [3]: 26%-50

Reference: patent US20260174682A1, “GAMMA-AMINOBUTYRIC ACID DERIVATIVE COMPRISING POLYCYCLIC STRUCTURE, METHOD FOR PREPARING SAME, AND USE THEREOF” (ZHONGSHAN INSTITUTE FOR DRUG DISCOVERY, SIMM, CAS., priority 2022, published 2026)
